# Read-outs that look alike come from different tables or passages of the source.
# Tests used:
# [1] = test system: Mycobacterium tuberculosis (strain H37Ra), cyt bd; settings: Mtb H37Ra; for (i) % OCR after cyt bd inhibitor: test compound 10 μM added after Compound X 0.9 μM; for (ii) % OCR after cccp: test compound 10 μM after Compound X 0.9 μM, then CCCP 1 μM
# [2] = test system: Mitochondrial toxicity (Glu/Gal); experiment: Mitochondrial toxicity (Glu/Gal) assay; assay type: cell-based; parameters: key to Score: “negative” means that in the test, it was found to have low mitotoxicity (and hence no mitotoxicity alerts); “positive” means that there were some mitotoxicity alerts; “inconclusive” means that no accurate conclusion could be drawn; settings: for Score: mitotoxicity score; for Δ IC50,glu/IC50,gal: ratio glu/gal
# Source text: The compounds of the invention/examples may have advantages associated with in vitro potency, kill kinetics (i.e. bactericidal effect) in vitro, PK properties, food effect, safety/toxicity (including liver toxicity, coagulation, 5-LO oxygenase), metabolic stability, Ames II negativity, MNT negativity, aqueous based solubility (and ability to formulate) and/or cardiovascular effect e.g. on animals (e.g. anesthetized guinea pig). The data below that was generated/calculated may be obtained using standard methods/assays, for instance that are available in the literature or which may be performed by a supplier (e.g. Microsomal Stability Assay—Cyprotex, Mitochondrial toxicity (Glu/Gal) assay—Cyprotex, as well as literature CYP cocktail inhibition assays).
# [3] = test system: Mycobacterium tuberculosis strain H37Rv ΔctaE-ΔqcrCAB; experiment: microbe, parasite or virus in culture; assay type: cell-based; settings: 240 h
# [4] = galactose medium, read-out: IC50, gal
# [5] = glucose medium, read-out: IC50, glu
SMILES,(i) % OCR after cyt bd inhibitor [1],(ii) % OCR after cccp [1],"IC50 [2, 4] [µM]","IC50 [2, 5] [µM]",Score [2],"Δ IC50,glu/IC50,gal [2]",IC50 [3] [µM]
Cc1c(-c2nc3ccc(-c4ccc(OC(F)(F)F)c(F)c4)cn3n2)[nH]c2ccccc2c1=O [Compound 1],26.9%,35.1%,19.8,100,positive,[x]5.06,1.63
Cc1c(-c2nc3ccc(-c4ccc(OC(F)(F)F)cc4)cn3n2)[nH]c2ccc(F)cc2c1=O [Compound 3],28.75%,38.75%,,,,,
Cc1c(-c2nc3ccc(N4CCCC(C(F)(F)F)C4)cn3n2)[nH]c2ccccc2c1=O (centres unmarked) [Compound 9],58.71%,62.22%,,,,,1.31
Cc1c(-c2nc3ccc(-c4ccc(F)c(F)c4)cn3n2)[nH]c2ccccc2c1=O [Compound 10],43.4%,63.9%,,,,,
Cc1c(-c2nc3ccc(-c4ccc(C(F)(F)F)s4)cn3n2)[nH]c2ccccc2c1=O [Compound 11],62.79%,69.17%,,,,,2.6
Cc1noc(-c2ccc3nc(-c4[nH]c5ccccc5c(=O)c4C)nn3c2)n1 [Compound 17],98.64%,97.68%,,,,,> 5
Cc1c(-c2cn3cc(-c4ccc(OC(F)(F)F)cc4)ccc3n2)[nH]c2ccccc2c1=O [Compound 35],102.9%,129.2%,,,,,2.39
Cc1c(-c2nc3ccc(-c4ccc(F)cc4)cn3n2)[nH]c2ccccc2c1=O [Compound 36],88.6%,130.6%,,,,,
Cc1c(-c2nc3ccc(-c4ncc(C(F)(F)F)s4)cn3n2)[nH]c2ccccc2c1=O [Compound 37],93.8%,132.68%,,,,,
Cc1c(-c2nc3ccc(-c4nc(C(F)(F)F)ns4)cn3n2)[nH]c2ccccc2c1=O [Compound 38],95.63%,132.88%,,,,,4.88
Cc1c(-c2nc3ccc(N4CCC(C(F)(F)F)CC4)cn3n2)[nH]c2ccccc2c1=O [Compound 47],99.34%,141.23%,,,,,
Cc1c(-c2nc3ccc(-c4nc(C(F)(F)F)nn4C)cn3n2)[nH]c2ccccc2c1=O [Compound 49],101.3%,143.58%,,,,,> 50
CNC(=O)c1c(-c2nc3ccc(-c4ccc(OC(F)(F)F)cc4)cn3n2)[nH]c2ccccc2c1=O [Compound 50],114.33%,144.07%,86.5,100,negative,[x]1.16,
Cc1c(-c2nc3ccc(N4CCOCC4)cn3n2)[nH]c2ccccc2c1=O [Compound 54],,,,,,,5.94
Cc1c(-c2nc3ccc(-c4nnc(C(F)(F)F)s4)cn3n2)[nH]c2ccccc2c1=O [Compound 59],107.31%,154.34%,,,,,
Cc1c(-c2nc3ccc(-c4ccc(F)nc4)cn3n2)[nH]c2ccccc2c1=O [Compound 61],108%,155.2%,,,,,
Cc1c(-c2nc3ccc(-c4ccc(OC(F)(F)F)cc4)cn3n2)[nH]c2c(F)cc(F)cc2c1=O [Compound 64],109.65%,158.95%,,,,,
COc1cc2[nH]c(-c3nc4ccc(-c5ccc(OC(F)(F)F)cc5)cn4n3)c(C)c(=O)c2cc1Cl [Compound 69],150.98%,165.1%,,,,,
Cc1csc(-c2ccc3nc(-c4[nH]c5ccccc5c(=O)c4C)nn3c2)n1 [Compound 71],95.71%,167.55%,,,,,> 10
Cc1c(-c2nc3ccc(-c4cn(C)nn4)cn3n2)[nH]c2ccccc2c1=O [Compound 76],111.72%,175.05%,,,,,> 5
COc1cc2c(=O)c(C)c(-c3nc4ccc(-c5ccc(OC(F)(F)F)cc5)cn4n3)[nH]c2cc1Cl [Compound 78],135.74%,178.3%,,,,,
Cc1c(-c2nc3ccc(-c4cc(F)cc(F)c4)cn3n2)[nH]c2ccccc2c1=O [Compound 88],,76%,,,,,5.35
COc1cccc(-c2ccc3nc(-c4[nH]c5ccccc5c(=O)c4C)nn3c2)c1 [Compound 89],"55,82%","62,29%",,,,,0.574
Cc1ccc(-c2ccc3nc(-c4[nH]c5ccccc5c(=O)c4C)nn3c2)o1 [Compound 91],"49,11%","56,23%",,,,,1.74
COc1ccc(-c2ccc3nc(-c4[nH]c5ccccc5c(=O)c4C)nn3c2)cc1F [Compound 98],"54,17%","73,86%",,,,,1.98
Cc1c(-c2nc3ccc(-c4cccc(C(F)F)c4)cn3n2)[nH]c2ccccc2c1=O [Compound 107],"58,92%","76,98%",,,,,3.32
Cc1c(-c2nc3ccc(-c4cccc(CC(F)F)c4)cn3n2)[nH]c2ccccc2c1=O [Compound 112],"31,36%","38,59%",,,,,1.85
Cc1c(-c2nc3ccc(-c4ccnn4C)cn3n2)[nH]c2ccccc2c1=O [Compound 116],"72,01%","85,87%",,,,,4.59
C/C=C(\C=C/C1=NC(c2[nH]c3ccccc3c(=O)c2C)=NC(CC)C1)c1ccc(OC)c(OC)c1 (centres unmarked) [Compound 120],"59,83%","89,24%",,,,,0.697
Cc1c(-c2nc3ccc(-c4ccc(C(F)(F)F)c(F)c4)cn3n2)[nH]c2ccccc2c1=O [Compound 123],"50,75%",,,,,,4.14

# — patent publication US20220389008A1, “4-QUINOLINONE ANTIBACTERIAL COMPOUNDS” (Janssen Sciences Ireland Unlimited Company, priority 2019, published 2022)
